Results from PubChem BioAssay (NCI).
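Following 48 hours of exposure in 96-well plates, responses at five concentrations were used to interpolate endpoints linearly. TGI denotes the concentration required for complete inhibition of growth.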

What was measured:
Assay in all cases: NCI anticancer screen, dose series, 48 h
HOP-62 NSCLC = tested on: HOP-62 NSCLC
IGROV1 ovarian = tested on: IGROV1 ovarian
KM12 colon = tested on: KM12 colon
SF-539 CNS = tested on: SF-539 CNS
HCT-116 colon = tested on: HCT-116 colon
SNB-19 CNS = tested on: SNB-19 CNS
EKVX NSCLC = tested on: EKVX NSCLC
LOX IMVI melanoma = tested on: LOX IMVI melanoma
COLO 205 colon = tested on: COLO 205 colon
HT29 colon = tested on: HT29 colon
PC-3 prostate = tested on: PC-3 prostate
NCI-H23 lung = tested on: NCI-H23 lung
SK-MEL-5 melanoma = tested on: SK-MEL-5 melanoma

Row | Compound | TGI (HOP-62 NSCLC) | TGI (IGROV1 ovarian) | TGI (KM12 colon) | TGI (SF-539 CNS) | TGI (HCT-116 colon) | TGI (SNB-19 CNS) | TGI (EKVX NSCLC) | TGI (LOX IMVI melanoma) | TGI (COLO 205 colon) | TGI (HT29 colon) | TGI (PC-3 prostate) | TGI (NCI-H23 lung) | TGI (SK-MEL-5 melanoma)
1 | COC(C)(C)C(O)C(O)C[C@H](C)C1CC=C2C1(C)CCC1[C@@]3(C)CCC(OC(C)=O)C(C)(C)C3CC(OC3OC(COC(C)=O)C(O)C(O)C3O)[C@@]21C (some centres not stated) | > 10 µM | 8.04 µM | > 10 µM | > 10 µM | > 10 µM | > 10 µM | > 10 µM | 6.55 µM | 3.89 µM | 9.01 µM | > 10 µM | > 10 µM | 4.38 µM
2 | COC(=O)C1([C@@H]2C[C@@H](O)[C@]3(C)CC/C=C(\C)CCC[C@H](C)[C@H](O)[C@@H]2O3)CC1 | > 100 µM | > 100 µM | > 100 µM | > 100 µM | > 100 µM | > 100 µM | > 100 µM | > 100 µM | > 100 µM | > 100 µM | > 100 µM | > 100 µM | > 100 µM
3 | COc1ccc(C)c2c1N[C@](C)([C@]1(C)Nc3c(OC)ccc(C)c3C1=O)C2=O | > 100 µM | > 100 µM | > 100 µM | > 100 µM | > 100 µM | > 100 µM | > 100 µM | > 100 µM | > 100 µM | > 100 µM | > 100 µM | > 100 µM | > 100 µM
4 | O=c1c2cccnc2[nH]c2ccc3scnc3c12 | > 10 µM | > 10 µM | > 10 µM | > 10 µM | 9.79 µM | > 10 µM | > 10 µM | > 10 µM | > 10 µM | > 10 µM | > 10 µM | > 10 µM | > 10 µM
5 | C=CCNC1=C2C[C@@H](C)C[C@@H](OC)[C@H](OC(=O)CN(C)C)[C@H](C)/C=C(\C)[C@@H](OC(N)=O)[C@H](OC)/C=C\C=C(/C)C(=O)NC(=CC1=O)C2=O | 17.6 µM | 13.5 µM | 0.274 µM | 16.2 µM | 16.2 µM | 20.8 µM | 21.8 µM | 8.19 µM | 1.64 µM | 12.7 µM | 16.6 µM | 19.8 µM | 14.6 µM
6 | O=C(NO)c1cccc(OCc2ccc(Br)cc2)c1 | 52.8 µM | 35 µM | > 64.9 µM | > 41.4 µM | 15.2 µM | > 46.4 µM | > 79.3 µM | > 34.8 µM | 27.4 µM | 35.8 µM | 49.9 µM | 17.7 µM | > 27.2 µM
7 | COC(=O)[C@H](CCSC)NC(=O)c1ccc(CNC(=O)/C=C/c2cccc(Oc3ccccc3)c2)cc1 | > 100 µM | > 73.2 µM | > 100 µM | > 100 µM | > 100 µM | > 100 µM | > 100 µM | > 100 µM | 50.5 µM | > 100 µM | > 100 µM | > 92.1 µM | 34.5 µM
8 | CC1=C(C)SC(=C2Sc3c(n(C)c(=O)[nH]c3=O)S2)S1 | > 100 µM | > 100 µM | > 100 µM | > 100 µM | > 100 µM | > 100 µM | > 100 µM | > 100 µM | > 100 µM | > 100 µM | > 100 µM | > 100 µM | > 100 µM
9 | c1ccc(COCC23CCN(Cc4ccccc4)C(CC(OCc4ccccc4)C2)S3)cc1 (configuration not stated) | > 100 µM | > 100 µM | > 100 µM | > 100 µM | > 100 µM | > 100 µM | > 100 µM | > 100 µM | > 100 µM | > 100 µM | > 100 µM | 95.9 µM | 32.3 µM
